# Measurements: ChEMBL document CHEMBL1201862, “PubChem BioAssay data set” (2004)
# Calls of active or inactive are those of the source.
# Assays:
# [1] = molecular target: T1, Small ubiquitin-related modifier 1 (Homo sapiens, UniProt P63165); assay: inhibitors of SUMO1 peptide binding, dose response, biochemical, fluorescence polarization, uHTS hits (AID 624382); assay type: functional; conditions: read-out: IC50_Mean
# [2] = molecular target: T1, Small ubiquitin-related modifier 1; assay: inhibitors of SUMO1 partner interactions, dose response, biochemical, FRET (AID 624383); assay type: functional; conditions: read-out: IC50_Mean
# [3] = molecular target: Ras and Rab interactor 1/Tyrosine-protein kinase ABL1 (Homo sapiens, UniProt P00519+Q13671); assay type: functional;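 note: biochemical TR-FRET dose-response test measuring inhibition of binding between Rin1 and Abl proteins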
# Sequence of Ras and Rab interactor 1/Tyrosine-protein kinase ABL1 (P00519 whole entry): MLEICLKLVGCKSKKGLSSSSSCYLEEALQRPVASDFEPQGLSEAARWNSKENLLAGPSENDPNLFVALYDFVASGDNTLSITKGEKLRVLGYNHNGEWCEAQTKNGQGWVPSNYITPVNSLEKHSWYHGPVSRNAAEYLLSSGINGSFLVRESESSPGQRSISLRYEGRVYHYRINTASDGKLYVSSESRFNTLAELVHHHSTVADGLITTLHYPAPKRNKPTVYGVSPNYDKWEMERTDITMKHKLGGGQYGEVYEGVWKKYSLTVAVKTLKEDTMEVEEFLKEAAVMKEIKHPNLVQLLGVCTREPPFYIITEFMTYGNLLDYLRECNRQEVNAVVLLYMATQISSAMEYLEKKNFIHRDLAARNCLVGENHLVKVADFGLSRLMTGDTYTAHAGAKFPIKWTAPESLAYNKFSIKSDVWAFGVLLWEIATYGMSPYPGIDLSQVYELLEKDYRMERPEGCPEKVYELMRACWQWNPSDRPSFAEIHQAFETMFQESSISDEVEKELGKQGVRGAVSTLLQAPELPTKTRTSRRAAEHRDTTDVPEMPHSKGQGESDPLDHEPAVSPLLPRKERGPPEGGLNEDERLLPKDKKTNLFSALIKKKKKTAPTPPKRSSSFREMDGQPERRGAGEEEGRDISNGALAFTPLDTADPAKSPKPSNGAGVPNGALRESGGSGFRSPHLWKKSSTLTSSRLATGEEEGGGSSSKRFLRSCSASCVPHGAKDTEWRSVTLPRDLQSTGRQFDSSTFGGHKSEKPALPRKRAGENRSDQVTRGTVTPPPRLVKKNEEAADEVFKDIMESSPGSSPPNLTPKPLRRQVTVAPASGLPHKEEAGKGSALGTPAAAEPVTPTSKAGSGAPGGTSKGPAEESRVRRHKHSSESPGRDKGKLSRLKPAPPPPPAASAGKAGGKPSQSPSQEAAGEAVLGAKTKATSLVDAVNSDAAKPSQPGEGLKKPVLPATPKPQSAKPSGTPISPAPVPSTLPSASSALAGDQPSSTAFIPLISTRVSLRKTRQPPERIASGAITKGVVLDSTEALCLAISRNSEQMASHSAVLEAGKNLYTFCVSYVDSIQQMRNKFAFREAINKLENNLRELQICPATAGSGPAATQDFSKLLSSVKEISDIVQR
# Sequence of Ras and Rab interactor 1/Tyrosine-protein kinase ABL1 (Q13671 whole entry): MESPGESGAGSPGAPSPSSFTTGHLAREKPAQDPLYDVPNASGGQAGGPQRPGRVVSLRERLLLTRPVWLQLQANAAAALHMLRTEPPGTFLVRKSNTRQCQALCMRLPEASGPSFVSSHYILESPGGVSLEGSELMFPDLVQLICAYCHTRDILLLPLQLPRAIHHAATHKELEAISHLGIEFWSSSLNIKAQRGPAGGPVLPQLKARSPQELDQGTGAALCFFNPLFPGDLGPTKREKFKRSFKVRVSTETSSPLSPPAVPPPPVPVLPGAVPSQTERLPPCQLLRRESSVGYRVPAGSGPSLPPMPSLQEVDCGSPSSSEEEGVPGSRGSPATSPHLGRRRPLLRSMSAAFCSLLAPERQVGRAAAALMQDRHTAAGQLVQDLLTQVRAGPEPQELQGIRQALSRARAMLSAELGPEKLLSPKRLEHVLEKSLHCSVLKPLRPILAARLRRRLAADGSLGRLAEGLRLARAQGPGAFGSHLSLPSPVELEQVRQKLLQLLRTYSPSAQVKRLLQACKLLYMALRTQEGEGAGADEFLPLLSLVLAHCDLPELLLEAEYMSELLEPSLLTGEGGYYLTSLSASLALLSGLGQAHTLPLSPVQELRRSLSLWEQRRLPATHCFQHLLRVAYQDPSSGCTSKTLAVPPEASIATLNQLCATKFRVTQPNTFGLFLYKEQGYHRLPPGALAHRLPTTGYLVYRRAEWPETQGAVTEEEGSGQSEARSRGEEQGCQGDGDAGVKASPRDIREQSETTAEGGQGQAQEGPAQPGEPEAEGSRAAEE
# [4] = molecular target: Nuclear receptor subfamily 5 group A member 2 (Homo sapiens, UniProt O00482); assay type: functional, cell-based;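 note: HEK293T cells transfected with LRH-1 and a StAR promoter luciferase reporter; potency for inhibitors that lower LRH-1 driven reporter light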
# [5] = molecular target: Steroidogenic factor 1 (Homo sapiens, UniProt Q13285); assay: Counterscreen for inverse agonists of the liver receptor homolog-1 (LRH-1; NR5A2): Luminescence-based cell-based high throughput dose response assay to identify inverse agonists of the Steroidogenic Factor 1 Nuclear Receptor (SF1; NR5A1).; assay type: functional
# Sequence of Steroidogenic factor 1 (Q13285 whole entry): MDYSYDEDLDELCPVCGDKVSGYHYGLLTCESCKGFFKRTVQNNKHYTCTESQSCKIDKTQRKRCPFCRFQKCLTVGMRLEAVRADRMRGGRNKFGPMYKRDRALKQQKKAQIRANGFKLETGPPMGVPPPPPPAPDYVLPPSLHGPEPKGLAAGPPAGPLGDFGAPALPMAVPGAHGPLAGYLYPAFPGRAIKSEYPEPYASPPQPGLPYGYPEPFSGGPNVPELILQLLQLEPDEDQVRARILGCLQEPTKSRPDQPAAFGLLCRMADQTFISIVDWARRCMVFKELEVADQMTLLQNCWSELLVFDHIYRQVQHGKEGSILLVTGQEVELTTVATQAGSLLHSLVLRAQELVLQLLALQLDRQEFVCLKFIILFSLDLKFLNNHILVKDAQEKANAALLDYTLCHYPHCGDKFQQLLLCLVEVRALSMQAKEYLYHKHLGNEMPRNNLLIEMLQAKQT
# [6] = StAR promoter reporter inhibition counter-screen, dose response, counter-screen for LRH-1 inverse agonist project, cell-based, luminescence, luciferase reporter (AID 651969); assay type: functional
# [7] = molecular target: Protein Wnt-3a (Mus musculus, UniProt P27467); assay: Wnt3a-driven reporter signaling inhibition, dose response, selectivity assay for Gli-SUFU antagonist project, Wnt-LIGHT cells, luminescence (AID 651570); assay type: functional; conditions: read-out: IC50_Mean;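 note: Wnt-LIGHT reporter cells stimulated with conditioned medium from Wnt3a-producing cells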
# Sequence of Protein Wnt-3a (P27467 whole entry): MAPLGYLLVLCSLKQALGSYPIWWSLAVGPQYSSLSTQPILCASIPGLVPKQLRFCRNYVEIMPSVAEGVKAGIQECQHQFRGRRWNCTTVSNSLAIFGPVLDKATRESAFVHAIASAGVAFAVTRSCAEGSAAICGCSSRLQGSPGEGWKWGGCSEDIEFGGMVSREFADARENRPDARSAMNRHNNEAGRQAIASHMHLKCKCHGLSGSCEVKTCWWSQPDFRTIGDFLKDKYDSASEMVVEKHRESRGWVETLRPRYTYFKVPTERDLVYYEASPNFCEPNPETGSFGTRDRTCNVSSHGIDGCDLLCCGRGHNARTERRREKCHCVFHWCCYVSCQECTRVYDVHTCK
# [8] = molecular target: Cytochrome P450 2D6 (Homo sapiens, UniProt P10635);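 note: CYP2D6 member of a cytochrome P450 panel assay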
# [9] = molecular target: Cytochrome P450 3A4 (Homo sapiens, UniProt P08684);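 note: CYP3A4 tested as one member of a cytochrome P450 panel screen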
# Sequence of Cytochrome P450 3A4 (P08684 whole entry): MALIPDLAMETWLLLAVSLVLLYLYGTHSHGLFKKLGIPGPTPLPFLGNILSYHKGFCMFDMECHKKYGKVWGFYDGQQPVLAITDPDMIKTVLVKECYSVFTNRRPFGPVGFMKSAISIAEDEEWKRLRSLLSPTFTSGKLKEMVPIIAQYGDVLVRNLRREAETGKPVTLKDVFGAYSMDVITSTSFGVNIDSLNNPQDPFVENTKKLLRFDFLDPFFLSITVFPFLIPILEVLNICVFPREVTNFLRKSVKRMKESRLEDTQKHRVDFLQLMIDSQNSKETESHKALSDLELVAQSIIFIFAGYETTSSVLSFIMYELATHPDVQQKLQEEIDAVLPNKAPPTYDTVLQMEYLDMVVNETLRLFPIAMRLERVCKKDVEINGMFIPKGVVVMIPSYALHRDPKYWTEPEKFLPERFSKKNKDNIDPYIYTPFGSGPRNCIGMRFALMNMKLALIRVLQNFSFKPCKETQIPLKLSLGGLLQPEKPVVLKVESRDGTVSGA
# [10] = system: HEK293; assay: NOD1 signaling inhibitors, primary screen, cell-based, luminescence, uHTS (AID 1578); assay type: functional; conditions: Homo sapiens
# [11] = system: HEK293; assay: cells; assay type: functional, cell-based; conditions: Homo sapiens
# [12] = system: HEK293; assay: cells; assay type: functional, cell-based; conditions: Homo sapiens; remark: listed apart in the source
# [13] = molecular target: Nucleotide-binding oligomerization domain-containing protein 2 (Homo sapiens, UniProt Q9HC29); assay: NOD2 signaling inhibitors, cell-based, luminescence, uHTS, HEK293 (AID 1566); assay type: functional
# Sequence of Nucleotide-binding oligomerization domain-containing protein 2 (Q9HC29 whole entry, the tested form may be a part): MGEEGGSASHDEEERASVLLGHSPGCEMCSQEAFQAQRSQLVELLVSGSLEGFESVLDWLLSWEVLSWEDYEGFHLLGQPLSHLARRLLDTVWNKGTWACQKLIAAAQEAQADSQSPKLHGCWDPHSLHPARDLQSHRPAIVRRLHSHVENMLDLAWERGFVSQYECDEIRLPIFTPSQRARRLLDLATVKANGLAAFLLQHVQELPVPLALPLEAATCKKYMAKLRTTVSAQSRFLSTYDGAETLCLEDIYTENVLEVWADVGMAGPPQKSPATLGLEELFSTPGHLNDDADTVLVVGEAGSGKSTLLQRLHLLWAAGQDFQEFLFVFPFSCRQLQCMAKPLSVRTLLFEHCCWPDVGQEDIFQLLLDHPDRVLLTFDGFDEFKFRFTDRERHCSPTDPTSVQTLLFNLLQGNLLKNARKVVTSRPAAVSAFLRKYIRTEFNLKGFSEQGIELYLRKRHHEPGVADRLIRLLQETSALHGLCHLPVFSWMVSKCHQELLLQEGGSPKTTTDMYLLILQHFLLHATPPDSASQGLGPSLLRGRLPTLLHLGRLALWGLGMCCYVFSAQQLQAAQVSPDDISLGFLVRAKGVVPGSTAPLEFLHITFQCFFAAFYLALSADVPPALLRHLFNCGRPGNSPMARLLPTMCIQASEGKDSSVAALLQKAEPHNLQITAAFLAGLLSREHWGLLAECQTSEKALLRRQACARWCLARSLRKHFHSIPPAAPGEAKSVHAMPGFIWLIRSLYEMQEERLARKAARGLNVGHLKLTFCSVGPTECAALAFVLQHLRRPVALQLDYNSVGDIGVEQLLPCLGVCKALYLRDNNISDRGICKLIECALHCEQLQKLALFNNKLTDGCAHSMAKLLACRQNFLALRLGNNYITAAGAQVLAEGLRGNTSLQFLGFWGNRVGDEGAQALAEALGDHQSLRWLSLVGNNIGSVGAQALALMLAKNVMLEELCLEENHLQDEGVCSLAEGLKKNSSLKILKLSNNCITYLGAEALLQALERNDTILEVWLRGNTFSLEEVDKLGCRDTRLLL
# [14] = system: HEK293; assay: NOD2 signaling inhibitors in MDP-stimulated cells, cell-based, uHTS, luminescence (AID 2001); assay type: functional; conditions: Homo sapiens
# [15] = system: HEK293; assay: cells; assay type: functional, cell-based; conditions: Homo sapiens; remark: listed apart in the source
# [16] = molecular target: T2, Interleukin-8 (Homo sapiens, UniProt P10145); assay: Dose Response confirmation of uHTS small molecule hits for cystic fibrosis induced NFkb Inhibitors in a PAF-induced IL8 counterscreen.; assay type: functional; conditions: read-out: IC50_Mean
# T2 sequence (P10145 whole entry): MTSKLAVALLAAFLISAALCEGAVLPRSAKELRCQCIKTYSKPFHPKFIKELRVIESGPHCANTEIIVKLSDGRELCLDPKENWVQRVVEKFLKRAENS
# [17] = inhibitors of HIV Env-driven cell fusion, dose response, cherry-pick (AID 652057); assay type: functional, cell-based
# [18] = ZM109 Env clade C HIV-1 fusion inhibitors, dose response, HeLa effector, CEM target cells, luciferase, cherry-pick (AID 652058); assay type: functional, cell-based
# [19] = off-target signal loss in HeLa-CEM21 co-culture – HeLa F-luc CTL cells, cherry-picked, counter-screen for HIV-1 Env fusion inhibitor project, dose response (AID 652040); assay type: functional, cell-based;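 note: potency for signal decrease marking cytotoxic or nonspecific inhibition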
# [20] = inhibitors of clade B AD8 Env fusion, dose response, cell-based, cherry-pick (AID 652062); assay type: functional;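 note: luciferase signal from cell-cell fusion driven by HIV-1 clade B AD8 Env; potency is for inhibitors of fusion seen as a drop in luminescence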
# [21] = molecular target: T3, Sentrin-specific protease 1 (Homo sapiens, UniProt Q9P0U3); assay: potency of human SENP1 inhibitors, dose response, biochemical, kinetic FRET (AID 651697); assay type: functional; conditions: read-out: IC50_Mean
# T3 sequence (Q9P0U3 whole entry, the tested form may be a part): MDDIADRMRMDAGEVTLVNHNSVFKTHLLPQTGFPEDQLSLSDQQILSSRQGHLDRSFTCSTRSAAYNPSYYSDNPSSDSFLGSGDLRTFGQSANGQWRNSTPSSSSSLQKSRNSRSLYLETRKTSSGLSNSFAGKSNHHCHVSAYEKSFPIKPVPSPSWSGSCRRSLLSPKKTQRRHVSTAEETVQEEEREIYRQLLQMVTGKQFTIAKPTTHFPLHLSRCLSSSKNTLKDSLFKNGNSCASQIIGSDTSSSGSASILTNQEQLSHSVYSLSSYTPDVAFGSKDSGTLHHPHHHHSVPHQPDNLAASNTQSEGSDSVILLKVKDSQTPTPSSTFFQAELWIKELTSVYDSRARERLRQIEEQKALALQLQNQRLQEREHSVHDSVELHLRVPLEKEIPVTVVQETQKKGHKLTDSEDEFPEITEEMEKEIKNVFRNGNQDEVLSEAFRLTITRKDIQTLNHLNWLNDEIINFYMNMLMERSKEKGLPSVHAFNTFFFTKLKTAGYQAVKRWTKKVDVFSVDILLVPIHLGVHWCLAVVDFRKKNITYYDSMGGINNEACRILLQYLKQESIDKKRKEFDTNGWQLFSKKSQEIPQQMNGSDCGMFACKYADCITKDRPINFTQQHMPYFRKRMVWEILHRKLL
# [22] = molecular target: T3, Sentrin-specific protease 1; assay: Dose response confirmation of small molecule inhibitors of the catalytic domain of the SUMO protease, SENP1 in a FRET assay.; assay type: functional; conditions: read-out: IC50_Mean
# T1 sequence (P63165 whole entry): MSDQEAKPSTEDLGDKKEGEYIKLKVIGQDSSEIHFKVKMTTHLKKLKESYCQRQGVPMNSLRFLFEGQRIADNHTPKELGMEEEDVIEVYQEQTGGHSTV
smiles,measurement,setting,value
CC(=O)c1sc(Nc2nc3cc4c(cc3s2)OCO4)nc1C,IC50,[1],> 66.6 µM (inactive)
same,IC50,[2],11.1 µM (active)
CCOC(=O)CCCCC(=O)c1[nH]c(=O)[nH]c1Cn1ccnc1,IC50,[3],12.8 µM (inactive)
COc1cc(C(=O)Nc2ccccc2N2CCN(S(C)(=O)=O)CC2)cc(OC)c1OC,IC50,[4],14.6 µM (inactive)
same,IC50,[5],7.65 µM (active)
same,IC50,[6],35.9 µM (inactive)
FC(F)(F)c1ccc(N2CCN(c3cc(-c4ccccc4)nc4ncnn34)CC2)nc1,IC50,[7],5.78 µM (active)
same,AC50,[8],11.2 µM (inconclusive)
same,AC50,[9],inconclusive
Cn1c(=O)c2c(nc(Oc3ccc4ccccc4c3)n2C)n(C)c1=O,EC50,[10],6.6 µM (active)
same,IC50,[11],3.32 µM (active)
same,IC50,[12],> 20 µM (inactive)
same,EC50,[13],4.28 µM (active)
same,IC50,[14],3.88 µM (active)
same,IC50,[15],> 20 µM (inactive)
same,IC50,[16],14 µM (inactive)
same,AC50,[17],11.6 µM (active)
same,AC50,[18],40.2 µM (active)
same,AC50,[19],18.4 µM (active)
same,AC50,[20],2.05 µM (active)
Cc1nc2nonc2c2nccc(O)c12,IC50,[21],8.83 µM (active)
same,IC50,[22],8.04 µM (active)
